# pEC50, pIC50: −log10 of the molar value.
# Tests used:
# [1] = target: T1, Hepatitis C virus serine protease, NS3/NS4A (Hepatitis C virus, UniProt A3EZI9+D2K2A8); experiment: Inhibition of C-terminal HCV NS4A-NS3 protease; assay type: protein-complex assay, Hepacivirus hominis
# [2] = tested on: Hepatitis C virus; experiment: Antiviral activity against Hepatitis C virus; assay type: functional, organism-based, Hepacivirus hominis
# [3] = target: T1, Hepatitis C virus serine protease, NS3/NS4A; experiment: Inhibition of HCV NS4A-NS3 protease; assay type: protein-complex assay, Hepacivirus hominis
# [4] = Oral bioavailability in rat plasma; assay type: ADME, organism-based; details: in vivo
# [5] = tested on: Hepatitis C virus; experiment: Antiviral activity against HCV GT1a-genotype assessed as inhibition of viral replication; assay type: functional, organism-based, Hepacivirus hominis
# [6] = tested on: Hepatitis C virus; experiment: Antiviral activity against HCV GT1b-genotype assessed as viral growth inhibition measured after 24 hrs; assay type: functional, organism-based, Hepacivirus hominis; details: Hepatitis C virus, GT1b-genotype, 24 h
# [7] = Solubility in water at pH 7; assay type: physicochemical
# [8] = tested on: Hepatitis C virus; experiment: Antiviral activity against HCV genotype 1b; assay type: functional, organism-based, Hepacivirus hominis
# [9] = tested on: Hepatitis C virus; experiment: Antiviral activity against HCV genotype 1a; assay type: functional, organism-based, Hepacivirus hominis
# T1 sequence (D2K2A8 whole entry): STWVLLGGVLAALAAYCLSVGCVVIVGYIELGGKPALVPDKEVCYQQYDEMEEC
# T1 sequence (A3EZI9 whole entry): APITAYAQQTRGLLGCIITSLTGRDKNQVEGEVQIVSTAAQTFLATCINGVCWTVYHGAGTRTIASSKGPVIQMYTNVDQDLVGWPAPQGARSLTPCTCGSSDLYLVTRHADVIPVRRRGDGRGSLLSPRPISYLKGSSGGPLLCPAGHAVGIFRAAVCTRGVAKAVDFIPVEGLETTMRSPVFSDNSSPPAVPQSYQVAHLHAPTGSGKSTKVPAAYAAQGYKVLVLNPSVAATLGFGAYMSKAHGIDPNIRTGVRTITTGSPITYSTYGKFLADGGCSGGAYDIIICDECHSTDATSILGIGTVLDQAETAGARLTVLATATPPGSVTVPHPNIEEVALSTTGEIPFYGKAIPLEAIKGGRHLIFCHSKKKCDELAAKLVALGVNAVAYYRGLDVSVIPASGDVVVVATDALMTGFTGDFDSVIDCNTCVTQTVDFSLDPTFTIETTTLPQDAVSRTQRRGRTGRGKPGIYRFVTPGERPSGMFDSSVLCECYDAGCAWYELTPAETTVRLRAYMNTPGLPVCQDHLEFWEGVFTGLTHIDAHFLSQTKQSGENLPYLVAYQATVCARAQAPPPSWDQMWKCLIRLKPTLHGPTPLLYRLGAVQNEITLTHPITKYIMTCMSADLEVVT
SMILES,pEC50 [5],pEC50 [6],further results
COc1ccc2c(O[C@@H]3C[C@H]4C(=O)N[C@]5(C(=O)O)C[C@H]5/C=C\CCCCC[C@H](NC(=O)OC(C)(C)C)C(=O)N4C3)cc(-c3ccccc3)nc2c1,–,–,pIC50 [1]: 7.96; pEC50 [2]: 8.92; pIC50 [3]: 8.52; F [4]: 42%
CN(C)S(=O)(=O)NC(=O)c1ccc2c(C3CCCCC3)c3n(c2c1)C[C@@]1(C(=O)N2CCOCC2)C[C@H]1c1ccccc1-3,7.39,7.29,–
O=C(O)c1ccc2c(C3CCCCC3)c3n(c2c1)CC(C(=O)N1CCOCC1)=Cc1ccccc1-3,6.39,6.44,–
CN(C)S(=O)(=O)NC(=O)c1ccc2c(C3CCCCC3)c3n(c2c1)CC(C(=O)N1CCOCC1)=Cc1ccccc1-3,6.92,6.83,solubility [7]: < 1 µg/mL
COc1ccc2c(c1)C=C(C(=O)N1CCOCC1)Cn1c-2c(C2CCCCC2)c2ccc(C(=O)NS(=O)(=O)N(C)C)cc21,7.21,7.21,–
CN(C)S(=O)(=O)NC(=O)c1ccc2c(C3CCCCC3)c3n(c2c1)C[C@]1(C(=O)N2CCOCC2)C[C@@H]1c1ccccc1-3,6.33,6.47,–
CN(C)[C@@H](C(=O)N1CCC[C@H]1c1ncc(-c2ccc(-c3ccc(-c4cnc([C@@H]5CCCN5C(=O)[C@@H](c5ccccc5)N(C)C)[nH]4)cc3)cc2)[nH]1)c1ccccc1,–,–,pEC50 [8]: 10.38; pEC50 [9]: 10.43

# From ChEMBL document CHEMBL5252531, “2015 Philip S. Portoghese Medicinal Chemistry Lectureship. Curing Hepatitis C Virus Infection with Direct-Acting Antiviral Agents: The Arc of a Medicinal Chemistry Triumph” (J Med Chem, 2016)
